AC1.4 and EC50 data for 26 molecules are collected here from patent publication US20250296916A1, “BICYCLIC PIPERAZINONES AND THERAPEUTIC USES THEREOF” (Cytokinetics, Inc., priority 2022, published 2025).

For one assay, the system named is rabbit skeletal myofibrils (approximately 90% fast fibers). The assay can be described thus: Activation of fast skeletal myofibrils (PUMA coupled-enzyme ATPase assay). In kind it is biochemical. To be noted: concentration at which the compound increased the enzymatic activity by 40%; calcium at pCa25; PM12 buffer pH 6.8. The procedure, abridged: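 Rabbit psoas myofibrils (Triton-washed, ~90% fast fibers) at calcium giving 25% of maximal ATPase rate (pCa25). ADP regenerated via pyruvate kinase/lactate dehydrogenase coupling, NADH oxidation read as absorbance at 340 nm. Buffer 12 mM PIPES, 2 mM MgCl2, 1 mM DTT, pH 6.8.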
For `CC[C@H](C)[C@H]1C(=O)Nc2cnccc2N1C(=O)c1cnn(C)c1` [Compound 89, (S)-2-((S)-sec-butyl)-1-(1-methyl-1H-pyrazole-4-carbonyl)-1,4-dihydropyrido[3,4-b]pyrazin-3(2H)-one], the AC1.4 came to 0.23 µM.

Regarding `CCC[C@H]1C(=O)Nc2ccccc2N1C(=O)c1cnn(C)c1` [Compound 13, (S)-4-(1-methyl-1H-pyrazole-4-carbonyl)-3-propyl-3,4-dihydroquinoxalin-2(1H)-one], the AC1.4 amounted to 0.13 µM.

Consider `CC(C)[C@H]1C(=O)Nc2cnccc2N1C(=O)c1cnn(C)c1` [Compound 88, (S)-2-isopropyl-1-(1-methyl-1H-pyrazole-4-carbonyl)-1,4-dihydropyrido[3,4-b]pyrazin-3(2H)-one], for which the AC1.4 turned out to be 0.85 µM.

Regarding `CCC[C@H]1C(=O)Nc2ccccc2N1C(=O)c1ccc(N(C)Cc2ccccc2)nc1` [Compound 39, (S)-4-(6-(benzyl(methyl)amino)nicotinoyl)-3-propyl-3,4-dihydroquinoxalin-2(1H)-one], the AC1.4 turned out to be 0.27 µM.

Turning to `CCC[C@H]1C(=O)Nc2ccccc2N1C(=O)c1ccc(NC(C)=O)nc1` [Compound 22, (S)-N-(5-(3-oxo-2-propyl-1,2,3,4-tetrahydroquinoxaline-1-carbonyl)pyridin-2-yl)acetamide], the AC1.4 is 2.76 µM.

For the molecule `CCC[C@H]1C(=O)Nc2ccccc2N1C(=O)Nc1ccccc1OC` [Compound 53, (S)-N-(2-methoxyphenyl)-3-oxo-2-propyl-3,4-dihydroquinoxaline-1(2H)-carboxamide], the AC1.4 stood at 0.55 µM.

Turning to `CCC[C@H]1C(=O)Nc2ccccc2N1C(=O)c1conc1C` [Compound 14, (S)-4-(3-methylisoxazole-4-carbonyl)-3-propyl-3,4-dihydroquinoxalin-2(1H)-one], the AC1.4 was 1.66 µM.

Turning to `CCC[C@H]1C(=O)Nc2ccccc2N1C(=O)c1ccc(N2CCCCC2)nc1` [Compound 29, (S)-4-(6-(piperidin-1-yl)nicotinoyl)-3-propyl-3,4-dihydroquinoxalin-2(1H)-one], the AC1.4 was 2.7 µM.

With `CCC[C@H]1C(=O)Nc2ccccc2N1C(=O)c1cnc2[nH]ncc2c1` [Compound 73, (S)-3-propyl-4-(1H-pyrazolo[3,4-b]pyridine-5-carbonyl)-3,4-dihydroquinoxalin-2(1H)-one], the AC1.4 came to 0.11 µM.

`CCC[C@H]1C(=O)Nc2ccccc2N1C(=O)c1cncc(C)c1` [Compound 16, (S)-4-(5-methylnicotinoyl)-3-propyl-3,4-dihydroquinoxalin-2(1H)-one]: the AC1.4 is 1.41 µM.

On to `CC[C@H](C)[C@H]1C(=O)Nc2ccccc2N1C(=O)CCO` [Compound 110, (S)-3-((S)-sec-butyl)-4-(3-hydroxypropanoyl)-3,4-dihydroquinoxalin-2(1H)-one], for which the AC1.4 is 1.18 µM.

As to `CC[C@H](C)[C@H]1C(=O)Nc2ccccc2N1C(=O)c1cnn(CC(N)=O)c1` [Compound 80, 2-(4-((S)-2-((S)-sec-butyl)-3-oxo-1,2,3,4-tetrahydroquinoxaline-1-carbonyl)-1H-pyrazol-1-yl)acetamide], the AC1.4 worked out at 0.63 µM.

For `CCC[C@H]1C(=O)Nc2ccccc2N1C(=O)c1ccccc1` [Compound 10, (S)-4-benzoyl-3-propyl-3,4-dihydroquinoxalin-2(1H)-one], the AC1.4 amounted to 0.33 µM.

Regarding `CCC[C@H]1C(=O)Nc2ccccc2N1C(=O)N1CCc2ccccc21` [Compound 52, (S)-4-(indoline-1-carbonyl)-3-propyl-3,4-dihydroquinoxalin-2(1H)-one], the AC1.4 was found to be 0.58 µM.

For the molecule `CCC[C@H]1C(=O)Nc2ccccc2N1C(=O)c1ccc(N(C)CC)nc1` [Compound 33, (S)-4-(6-(ethyl(methyl)amino)nicotinoyl)-3-propyl-3,4-dihydroquinoxalin-2(1H)-one], the AC1.4 amounted to 0.95 µM.

As to `CC[C@H](C)[C@H]1C(=O)Nc2ccccc2N1C(=O)c1cc[nH]n1` [Compound 79, (S)-3-((S)-sec-butyl)-4-(1H-pyrazole-3-carbonyl)-3,4-dihydroquinoxalin-2(1H)-one], the AC1.4 was 0.88 µM.

In the case of `CCC[C@H]1C(=O)Nc2cccc(Br)c2N1C(=O)c1cnn(C)c1` [Compound 69, (S)-5-bromo-4-(1-methyl-1H-pyrazole-4-carbonyl)-3-propyl-3,4-dihydroquinoxalin-2(1H)-one], the AC1.4 was determined as 1.52 µM.

For the molecule `CC(C)[C@H]1C(=O)Nc2ccccc2N1C(=O)c1ccc(N)nc1` [Compound 82, (S)-4-(6-aminonicotinoyl)-3-isopropyl-3,4-dihydroquinoxalin-2(1H)-one], the AC1.4 was found to be 0.26 µM.

Consider `CCC[C@H]1C(=O)Nc2ccccc2N1C(=O)CCc1ccccc1` [Compound 19, (S)-4-(3-phenylpropanoyl)-3-propyl-3,4-dihydroquinoxalin-2(1H)-one], for which the AC1.4 was 1.46 µM.

In the case of `CCC[C@H]1C(=O)Nc2ccccc2N1C(=O)Nc1ccccc1C` [Compound 60, (S)-3-oxo-2-propyl-N-(o-tolyl)-3,4-dihydroquinoxaline-1(2H)-carboxamide], the AC1.4 worked out at 0.82 µM.

For `CCC[C@H]1C(=O)Nc2ccccc2N1C(=O)c1cnc2[nH]ccc2c1` [Compound 26, (S)-3-propyl-4-(1H-pyrrolo[2,3-b]pyridine-5-carbonyl)-3,4-dihydroquinoxalin-2(1H)-one], the AC1.4 turned out to be 0.56 µM.

Regarding `CCC[C@H]1C(=O)Nc2ccccc2N1C(=O)Nc1ccncc1` [Compound 48, (S)-3-oxo-2-propyl-N-(pyridin-4-yl)-3,4-dihydroquinoxaline-1(2H)-carboxamide], the AC1.4 is 1.08 µM.

Turning to `CCC[C@H]1C(=O)Nc2ccccc2N1C(=O)NCC1CCCCC1` [Compound 51, (S)-N-(cyclohexylmethyl)-3-oxo-2-propyl-3,4-dihydroquinoxaline-1(2H)-carboxamide], the AC1.4 stood at 0.48 µM.

Regarding `CCC[C@H]1C(=O)Nc2ccccc2N1C(=O)c1ccc(N(C)CCC(F)(F)F)nc1` [Compound 44, (S)-4-(6-(methyl(3,3,3-trifluoropropyl)amino)nicotinoyl)-3-propyl-3,4-dihydroquinoxalin-2(1H)-one], the AC1.4 stood at 2.61 µM.

Regarding `CCC[C@H]1C(=O)Nc2ccccc2N1C(=O)c1cccs1` [Compound 15, (S)-3-propyl-4-(thiophene-2-carbonyl)-3,4-dihydroquinoxalin-2(1H)-one], the AC1.4 was 0.17 µM.

For `CCCC1C(=O)Nc2ccccc2N1C(=O)c1ccc(Cl)nc1` (centres unmarked) [Compound 1, 4-(6-chloronicotinoyl)-3-propyl-3,4-dihydroquinoxalin-2(1H)-one], the AC1.4 is 0.45 µM.

The subject of another assay is ankle plantarflexor muscle contractile force. The assay can be described thus: Rat isometric ankle plantarflexor muscle force. In kind it is in vivo, Sprague Dawley rats. Particulars: estimated concentration at which muscle force is 50% of pre-dose maximum tension, 30 Hz stimulation, continuous intravenous infusion over sixty minutes, female rats. An excerpt:
Female Sprague Dawley rats were placed under a stable anesthesic plane with inhaled isoflurane (1-5%). One incision was made on the mid-thigh region of the right leg to expose the sciatic nerve. To prevent co-contraction of the ankle dorsiflexors, an additional incision was made lateral to the patella to isolate and sever the peroneal nerve. Rats were then placed on a temperature-maintained in situ muscle analysis rig (Aurora Scientific, Model 806C). The knee was immobilized in a clamp between two sharpened screws and the foot was taped to a footplate attached to a force transducer (Aurora Scientific, Ontario, Canada). Stainless steel needle electrodes (0.10 mm) were hooked around the exposed sciatic nerve. Isometric ankle plantarflexor muscle contractile force was assessed with the ankle joint at 90° flexion. A 30 Hz electrical stimulation (under supramaximal voltage conditions) was applied to the nerve and the resulting muscle force was recorded via a servomotor. A pre-dose 30 Hz force response was established as the baseline force. A pre-dose 150 Hz force response was established as the maximum isometric force. Compounds were formulated in 50% polyethylene glycol (PEG): 16% Cavitron: 10% dimethylacetamide (DMA) and administered by continuous intravenous infusion over a sixty minute period. The muscle force response to compound was measured every two minutes over the dosing period. Data were reported as an estimated EC50 value, which is the concentration at which muscle force is 50% of the pre-dose maximum tension. In Table 4, “Example Compound” refers to the compound labeled with the same number in Table 2.
`CC[C@H](C)[C@H]1C(=O)Nc2cnccc2N1C(=O)c1cnn(C)c1` [Compound 89, (S)-2-((S)-sec-butyl)-1-(1-methyl-1H-pyrazole-4-carbonyl)-1,4-dihydropyrido[3,4-b]pyrazin-3(2H)-one]: the EC50 is 23.9 µM.

Regarding `CCC[C@H]1C(=O)Nc2ccccc2N1C(=O)c1cnn(C)c1` [Compound 13, (S)-4-(1-methyl-1H-pyrazole-4-carbonyl)-3-propyl-3,4-dihydroquinoxalin-2(1H)-one], the concentration for a half-maximal effect (EC50) was 15.7 µM.

`CC(C)[C@H]1C(=O)Nc2cnccc2N1C(=O)c1cnn(C)c1` [Compound 88, (S)-2-isopropyl-1-(1-methyl-1H-pyrazole-4-carbonyl)-1,4-dihydropyrido[3,4-b]pyrazin-3(2H)-one]: the 50% effective concentration (EC50) is 20.1 µM.
